In brackets after ≈: the same amount, converted by molar mass. Structures can show the parent of a compound that is named as a salt.
Key:
[1] = tested on: Mycobacterium tuberculosis (strain H37RV); assay: In-vitro method for testing compounds against M. tuberculosis (resazurin growth inhibition); type: cell-based; conditions: 7 days incubation; for IC50: Mycobacterium tuberculosis, 168 h, read-out: M. tuberculosis pIC50 (converted)
[2] = tested on: M. Smegmatis ATCC607; assay: In-vitro anti-bacterial activity against strain M. smegmatis ATCC607 (Alamar Blue growth inhibition); type: cell-based; conditions: 48 hours incubation; for IC50: Mycolicibacterium smegmatis, read-out: M. smegmatis pIC50 (converted)
Description: Serial five-fold dilutions (45 μl in 180 μl) were made directly in the microtiter plates from column 2 to 11 using a customised robot system (Zymark Corp., Hopkinton, Mass.). Pipette tips were changed after every 3 dilutions to minimize pipetting errors with high hydrophobic compounds. Untreated control samples with (column 1) and without (column 12) inoculum were included in each microtiter plate. Approximately 250 CFU per well of bacteria inoculum, in a volume of 100 μl in 2.8× Mueller-Hinton broth medium, was added to the rows […]. The same volume of broth medium without inoculum was added to column 12 in row A to H. The cultures were incubated at 37° C. for 48 hours in a humidified 5% CO2 atmosphere (incubator with open air valve and continuous ventilation). At the end of incubation, two days after inoculation, the bacterial growth was quantitated fluorometrically. Therefore Alamar Blue (10×) was added to all wells in a volume of 20 μl and plates were incubated for another 2 hours at […] The fluorescence was read in a computer-controlled fluorometer (Cytofluor, Biosearch) at an excitation wavelength of 530 nm and an emission wavelength of 590 nm (gain 30). The percentage growth inhibition achieved by the compounds was calculated according to standard methods and expressed as pIC50 values.

[3] = tested on: ECO 25922; assay: Microtitre plate assay, IC90 determination, ECO 25922; type: cell-based, E. coli; conditions: 90% inhibitory concentration for bacterial growth, strain ECO 25922, 24 hours at 37° C.; for IC90: Escherichia coli, read-out: IC90 (μg/ml) ECO 25922
Description: Stocks (0.5 ml/tube) were stored at -70° C. until use. Bacteria titrations were performed in microtiter plates to detect the TCID50, in which the TCID50 represents the dilution that gives rise to bacterial growth in 50% of inoculated cultures. In general, an inoculum level of approximately 100 TCID50 was used for susceptibility testing. […] Serial five-fold dilutions (45 μl in 180 μl) were made directly in the microtiter plates from column 2 to reach column 11. Untreated control samples with (column 1) and without (column 12) inoculum were included in each microtiter plate. Depending on the bacteria type, approximately 10 to 60 CFU per well of bacteria inoculum (100 TCID50), in a volume of 100 μl in 2.8× Mueller-Hinton broth medium, was added to the rows […]. The same volume of broth medium without inoculum was added to column 12 in row A to H. The cultures were incubated at 37° C. for 24 hours under a normal atmosphere (incubator with open air valve and continuous ventilation). At the end of incubation, one day after inoculation, the bacterial growth was quantitated fluorometrically. Therefore resazurin (0.6 mg/ml) was added in a volume of 20 μl to all wells 3 hours after inoculation, and the plates were re-incubated overnight. A change in colour from blue to pink indicated the growth of bacteria. The fluorescence was read in a computer-controlled fluorometer (Cytofluor Biosearch) at an excitation wavelength of 530 nm and an emission wavelength of 590 nm. The % growth inhibition achieved by the compounds was calculated according to standard methods. The IC90 (expressed in μg/ml) was defined as the 90% inhibitory concentration for bacterial growth.

SMILES	M. tuberculosis pIC50 [1]	M. smegmatis pIC50 [2]	also measured
COc1cccc(CN(CCN(C)C)C(c2ccccc2)c2cc3cc(Br)ccc3nc2OC)c1 (stereo not drawn) (as salt: oxalate) [Compound 20]			melting point: 142 °C
Cc1ccc2nc(-c3ccccc3)c(C(c3ccccc3)N(C)CCN(C)C)cc2c1 (stereo not drawn) (as salt: oxalate) [Compound 37]			melting point: 142 °C
Cc1ccc2nc(-c3ccccc3)c(C(c3ccccc3)N(CC(=O)N(C)C)Cc3ccccc3)cc2c1 (stereo not drawn) [Compound 45]			IC50 [1]: 10000 nM; IC50 [2]: 1000 nM
Cc1ccc2nc(-c3ccccc3)c(C(c3ccccc3)N(CC(=O)N(C)CC#N)Cc3ccccc3)cc2c1 (stereo not drawn) [Compound 46]	5.0	5.8	
CCN(CC)C(=O)CN(Cc1ccccc1)C(c1ccccc1)c1cc2cc(C)ccc2nc1-c1ccccc1 (stereo not drawn) [Compound 47]			IC50 [1]: 6310 nM; IC50 [2]: 316 nM
CCN(Cc1ccccc1)C(=O)CN(Cc1ccccc1)C(c1ccccc1)c1cc2cc(C)ccc2nc1-c1ccccc1 (stereo not drawn) [Compound 48]	4.1		
CCCN(CCC)C(=O)CN(Cc1ccccc1)C(c1ccccc1)c1cc2cc(C)ccc2nc1-c1ccccc1 (stereo not drawn) [Compound 49]	4.6	5.2	
CNC(=O)CN(Cc1ccccc1)C(c1ccccc1)c1cc2cc(Br)ccc2nc1-c1ccccc1 (stereo not drawn) [Compound 52]		5.8	IC90 (μg/ml) ECO 25922 [3]: 13.8 µg/mL (≈ 25.1 µM)
O=C(CN(Cc1ccccc1)C(c1ccccc1)c1cc2ccccc2nc1-c1ccccc1)N1CCCC1 (stereo not drawn) [Compound 55]	4.3	6.0	IC90 (μg/ml) ECO 25922 [3]: 12.9 µg/mL (≈ 25.2 µM)
Cc1ccc2nc(-c3ccccc3)c(C(c3ccccc3)N(CC(=O)N3CCCC3)Cc3ccccc3)cc2c1 (stereo not drawn) [Compound 64]	5.0	6.5	
Cc1ccc2nc(-c3ccccc3)c(C(c3ccccc3)N(CC(=O)N3CCSC3)Cc3ccccc3)cc2c1 (stereo not drawn) [Compound 65]	5.0	6.5	IC90 (μg/ml) ECO 25922 [3]: 13.7 µg/mL (≈ 25.2 µM)
Cc1ccc2nc(-c3ccccc3)c(C(c3ccccc3)N(CC(=O)N3CCC(C)CC3)Cc3ccccc3)cc2c1 (stereo not drawn) [Compound 67]	5.7	6.0	
Cc1ccc2nc(-c3ccccc3)c(C(c3ccccc3)N(CC(=O)N3CCOCC3)Cc3ccccc3)cc2c1 (stereo not drawn) [Compound 68]	5.1	6.5	
Cc1ccc2nc(-c3ccccc3)c(C(c3ccccc3)N(CC(=O)N3CC(C)OC(C)C3)Cc3ccccc3)cc2c1 (stereo not drawn) [Compound 71]	5.1	5.7	
Cc1ccc2nc(-c3ccccc3)c(C(c3ccccc3)N(CC(=O)N3Cc4ccccc4C3)Cc3ccccc3)cc2c1 (stereo not drawn) [Compound 73]	4.5		
Cc1ccc2nc(-c3ccccc3)c(C(c3ccccc3)N(CC(=O)N3CCc4ccccc4C3)Cc3ccccc3)cc2c1 (stereo not drawn) [Compound 74]	5.0	5.2	IC90 (μg/ml) ECO 25922 [3]: 14.8 µg/mL (≈ 25.2 µM)
Cc1ccc2nc(-c3ccccc3)c(C(c3ccccc3)N(CC(=O)N3CCN(c4ccccn4)CC3)Cc3ccccc3)cc2c1 (stereo not drawn) [Compound 75]	5.4		
Cc1ccc2nc(-c3ccccc3)c(C(c3ccccc3)N(CC(=O)N3CCN(c4ncccn4)CC3)Cc3ccccc3)cc2c1 (stereo not drawn) [Compound 76]	5.0		
Cc1ccc2nc(-c3ccccc3)c(C(c3ccccc3)N(CC(=O)N3CCN(Cc4ccccc4)CC3)Cc3ccccc3)cc2c1 (stereo not drawn) [Compound 78]	6.05		
Cc1ccc2nc(-c3ccccc3)c(C(c3ccccc3)N(CC(=O)N3CCC(Cc4ccccc4)CC3)Cc3ccccc3)cc2c1 (stereo not drawn) [Compound 79]	5.7		
COc1nc2ccc(Br)cc2cc1C(c1ccccc1)N(C)CC(=O)N1CCSCC1 (stereo not drawn) [Compound 88]	4.05	4.9	
COc1nc2ccc(Br)cc2c(Cl)c1C(c1ccccc1)N(C)CC(=O)N1CCSCC1 (stereo not drawn) [Compound 97]	4.2	4.4	
COc1nc2ccc(Br)cc2cc1C(c1ccccc1)N(CC(=O)N1CCOCC1)Cc1ccoc1 (stereo not drawn) [Compound 102]		5.8	IC90 (μg/ml) ECO 25922 [3]: 13.8 µg/mL (≈ 25.1 µM)

SMILES	M. tuberculosis pIC50 [1]	M. smegmatis pIC50 [2]	also measured
COc1nc2ccc(Br)cc2cc1C(c1ccccc1)N(CC(=O)N1CCCC1)Cc1ccccc1 (stereo not drawn) [Compound 103]		4.5	IC90 (μg/ml) ECO 25922 [3]: 13.7 µg/mL (≈ 25.2 µM)
COc1nc2ccc(Br)cc2cc1C(c1ccccc1)N(CC(=O)N1CCOCC1)Cc1ccccc1 (stereo not drawn) [Compound 105]		6.0	IC90 (μg/ml) ECO 25922 [3]: 14.1 µg/mL (≈ 25.2 µM)
COc1nc2ccc(Br)cc2cc1C(c1ccccc1)N(CC(=O)N1CCSCC1)Cc1ccccc1 (stereo not drawn) [Compound 106]	<4	6.4	IC90 (μg/ml) ECO 25922 [3]: 14.5 µg/mL (≈ 25.1 µM)
COc1nc2ccc(Br)cc2cc1C(c1ccccc1)N(CC(=O)N1CCOCC1)Cc1ccccc1Cl (stereo not drawn) [Compound 108]		5.9	IC90 (μg/ml) ECO 25922 [3]: 14.9 µg/mL (≈ 25 µM)
COc1nc2ccc(Br)cc2cc1C(c1ccccc1)N(CC(=O)N1CCOCC1)Cc1cccnc1 (stereo not drawn) [Compound 111]		5.8	IC90 (μg/ml) ECO 25922 [3]: 14.1 µg/mL (≈ 25.1 µM)
COc1nc2ccc(Br)cc2cc1C(c1ccccc1)N(CC(=O)N1CCSCC1)Cc1cccc2ncccc12 (stereo not drawn) [Compound 115]		4.8	
COc1nc2ccc(Br)cc2cc1C(c1ccccc1)N(CC(=O)N1CCOCC1)Cc1cccc2ncccc12 (stereo not drawn) [Compound 116]		5.3	
COc1nc2ccc(Br)cc2cc1C(c1ccccc1)N(CC(=O)N1CCSCC1)Cc1ccnc2ccccc12 (stereo not drawn) [Compound 117]		4.3	
COc1nc2ccc(Br)cc2cc1C(c1ccccc1)N(CC(=O)N1CCOCC1)Cc1ccnc2ccccc12 (stereo not drawn) [Compound 118]		5.6	
COc1nc2ccc(Br)cc2cc1C(c1ccccc1)N(CC(=O)N1CCN(C)CC1)Cc1ccnc2ccccc12 (stereo not drawn) [Compound 119]		5.5	
COc1nc2ccc(Br)cc2cc1C(c1ccccc1)N(CCC(=O)N1CCOCC1)Cc1ccccc1 (stereo not drawn) [Compound 120]		5.6	IC90 (μg/ml) ECO 25922 [3]: 14.4 µg/mL (≈ 25.1 µM)
COc1nc2ccc(C#N)cc2cc1C(c1ccccc1)N(CC(=O)N1CCOCC1)Cc1ccccc1 (stereo not drawn) [Compound 124]		5.05	IC90 (μg/ml) ECO 25922 [3]: 12.7 µg/mL (≈ 25.1 µM)
O=C(CN(Cc1ccccc1)C(c1ccccc1)c1cc2ccccc2nc1-c1ccccc1)N1CCCCC1 (stereo not drawn) [Compound 126]		6.4	
O=C(CN(Cc1ccccc1)C(c1ccccc1)c1cc2ccccc2nc1-c1ccccc1)N1CCSCC1 (stereo not drawn) [Compound 127]		6.5	
CCOC(=O)CN(Cc1ccccc1)C(c1cccnc1)c1cc2ccccc2nc1-c1ccccc1 (stereo not drawn) [Compound 129]			IC50 [2]: 1580 nM
CCOC(=O)CN(C)C(c1ccccc1)c1cc2cc(Br)ccc2nc1OC (stereo not drawn) [Compound 131]			IC50 [1]: 31600 nM; IC50 [2]: 1000 nM
CCOC(=O)CN(C(C)C)C(c1ccccc1)c1cc2cc(Br)ccc2nc1OC (stereo not drawn) [Compound 133]	4.4	5.7	
CCOC(=O)CN(Cc1ccoc1)C(c1ccccc1)c1cc2cc(Br)ccc2nc1OC (stereo not drawn) [Compound 136]		4.4	
CCOC(=O)CN(Cc1ccccn1)C(c1ccccc1)c1cc2cc(Br)ccc2nc1OC (stereo not drawn) [Compound 139]		4.3	
CCOC(=O)CN(Cc1ccccc1)C(c1ccccc1)c1cc2cc(Br)ccc2nc1-c1ccccc1 (stereo not drawn) [Compound 146]			IC90 [3]: 14.2 µg/mL (≈ 25.1 µM); IC50 [1]: 50100 nM; IC50 [2]: 501 nM
CCOC(=O)CN(Cc1ccccc1)C(c1ccccc1)c1cc2cc(C)ccc2nc1-c1ccccc1 (stereo not drawn) [Compound 150]			IC50 [1]: 39800 nM; IC50 [2]: 398 nM
CCOC(=O)CN(Cc1ccccc1)C(c1ccccc1)c1cc2cc(-c3cccnc3)ccc2nc1-c1ccccc1 (stereo not drawn) [Compound 152]			IC90 [3]: 14.2 µg/mL (≈ 25.2 µM); IC50 [2]: 2510 nM
COc1nc2ccc(Br)cc2cc1C(c1ccccc1)[N+]([O-])(CC(=O)N1CCOCC1)Cc1ccccc1 (stereo not drawn) [Compound 154]			IC50 [2]: 3980 nM
